Data from patent US9156790B2, “Anticancer P21-activated kinase inhibitors” (Ohio State Innovation Foundation, priority 2013, dated 2015).
Entries after “also recorded” stand apart in the source; their conditions may differ.

Experiments:
BCPAP cells = test: MTT cell viability assay, BCPAP; type: cell-based, Human; settings: Homo sapiens, BCPAP, 72-hours of exposure, 1% FBS, mean±standard deviation (n=3), read-out: IC50 for reducing viability of BCPAP cells versus DMSO control
Excerpt: Human thyroid cancer BCPAP, TPC1, and FTC133 cell lines were the generous gifts of Drs. Rebecca Schweppe and Bryan Haugen (University of Colorado Denver) (Schweppe et al., The Journal of clinical endocrinology and metabolism 83:4331-4341 (2008)) with permission from the following originating laboratories: BCPAP—Dr. Fabien, Centre Hospitalier Lyon-Sud, France (Fabien et al., Cancer 73:2206-2212 (1994)); TPC1—Dr. Sato, Kanazawa University, Japan (Tanaka et al., Virology 161:62-411 (1987)); and FTC133—Dr. Goretzki, University of Leipzig, Germany (Goretzki et al., Recent Results Cancer Res 118:48-63 (1990)). The obtained cell lines were confirmed for identity by DNA fingerprinting. BCPAP was grown in RPMI 1640 medium (Life Technologies Co., Carlsbad, Calif.) while FTC133 and TPC1 were grown in DMEM (Life Technologies Co.), both supplemented with 10% fetal bovine serum (FBS) and NEAA unless as noted for experiments.
The effect of OSU-03012 and its derivatives on cell viability was assessed by using the 3-(4,5-dimethylthiazol-2-yl)-2,5-diphenyl-2H-tetrazolium bromide (MTT) assay. Three replicates were performed in each individual experiment, and experiments were repeated at least three separate times. Cells were grown in 96-well plates for 24 hours and were exposed to various concentrations of drugs dissolved in DMSO (final concentration 0.1%) in RPMI 1640 or DMEM containing 1% FBS for 72 hours. 10 μL of 0.5 mg/ml MTT was added to each well and cells were incubated in CO2 at 37° C. for 2 hours. Supernatants were removed from the wells, the reduced MTT dye was solubilized in 100 μL of solution C (12 ml of 1N HCl in 300 mL of isopropanol), and absorbance at 570 nm was determined on a microplate reader.
We assessed the ability of the compounds to reduce cell viability in vitro by MTT assay after 72 hours of continuous exposure. Results are shown in Table 1 and are depicted as the IC50 vs. simultaneously performed DMSO control.
^aThe reported IC50 values are concentrations at which BCPAP, FTC133 and TPC1 cell viability by MTT assays 50% of DMSO control after 72-hours of exposure. Data are presented as mean±standard deviation (n=3). PAK and PDK1 Selectivity In Vivo

EGFR = EGFR (Homo sapiens, UniProt P00533); test: Kinase profiling panel: EGFR; type: biochemical; settings: 5 μM compound; average of triplicate
Chain of EGFR (P00533 25-1210, species assumed): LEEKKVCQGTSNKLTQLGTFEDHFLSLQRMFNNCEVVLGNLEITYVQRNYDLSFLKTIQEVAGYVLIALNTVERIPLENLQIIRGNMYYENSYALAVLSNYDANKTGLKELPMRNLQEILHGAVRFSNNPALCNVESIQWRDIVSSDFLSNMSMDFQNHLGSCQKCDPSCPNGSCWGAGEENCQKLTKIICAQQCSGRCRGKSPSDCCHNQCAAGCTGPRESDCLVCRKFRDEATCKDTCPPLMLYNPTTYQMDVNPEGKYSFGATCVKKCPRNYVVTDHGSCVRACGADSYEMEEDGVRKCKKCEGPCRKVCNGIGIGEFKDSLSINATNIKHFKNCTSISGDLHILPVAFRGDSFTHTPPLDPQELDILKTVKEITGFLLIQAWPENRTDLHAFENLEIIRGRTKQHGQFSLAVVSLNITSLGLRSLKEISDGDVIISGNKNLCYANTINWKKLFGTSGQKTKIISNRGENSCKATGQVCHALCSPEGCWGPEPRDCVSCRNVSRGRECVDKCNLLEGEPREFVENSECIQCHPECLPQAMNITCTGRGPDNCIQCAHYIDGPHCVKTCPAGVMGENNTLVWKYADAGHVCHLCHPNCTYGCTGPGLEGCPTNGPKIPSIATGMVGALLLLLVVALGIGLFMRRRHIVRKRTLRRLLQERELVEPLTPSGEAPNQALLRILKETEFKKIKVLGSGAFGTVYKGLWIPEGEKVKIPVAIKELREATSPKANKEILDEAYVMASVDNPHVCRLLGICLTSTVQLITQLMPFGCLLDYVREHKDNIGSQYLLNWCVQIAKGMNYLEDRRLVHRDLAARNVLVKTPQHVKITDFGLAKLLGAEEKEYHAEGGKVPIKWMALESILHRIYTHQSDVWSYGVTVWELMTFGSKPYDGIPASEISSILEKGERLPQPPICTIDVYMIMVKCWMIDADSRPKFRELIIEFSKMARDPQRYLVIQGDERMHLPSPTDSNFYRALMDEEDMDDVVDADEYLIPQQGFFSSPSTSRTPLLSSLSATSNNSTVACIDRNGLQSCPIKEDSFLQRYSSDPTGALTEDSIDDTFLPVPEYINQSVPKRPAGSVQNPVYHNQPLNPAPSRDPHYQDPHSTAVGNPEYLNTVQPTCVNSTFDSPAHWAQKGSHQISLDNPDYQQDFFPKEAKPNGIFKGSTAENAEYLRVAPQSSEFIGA
Protocol: (§1) To further probe the selectivity of the compounds 4 and 15, they were subjected for kinase profiling service for screening against a panel of other kinases selected based on the kinase tree at 5 μM concentration, at or above the IC50 for the two compounds versus PAK in both in vitro and cell-based assays. […] PAK1 was not available for testing using this system thus it was not possible to compare directly in this assay system.

GSK3β = GSK3β (Homo sapiens, UniProt P49841); test: Kinase profiling panel: GSK3β; type: biochemical; settings: 5 μM compound; average of triplicate
Chain of GSK3β (P49841 whole entry, species assumed): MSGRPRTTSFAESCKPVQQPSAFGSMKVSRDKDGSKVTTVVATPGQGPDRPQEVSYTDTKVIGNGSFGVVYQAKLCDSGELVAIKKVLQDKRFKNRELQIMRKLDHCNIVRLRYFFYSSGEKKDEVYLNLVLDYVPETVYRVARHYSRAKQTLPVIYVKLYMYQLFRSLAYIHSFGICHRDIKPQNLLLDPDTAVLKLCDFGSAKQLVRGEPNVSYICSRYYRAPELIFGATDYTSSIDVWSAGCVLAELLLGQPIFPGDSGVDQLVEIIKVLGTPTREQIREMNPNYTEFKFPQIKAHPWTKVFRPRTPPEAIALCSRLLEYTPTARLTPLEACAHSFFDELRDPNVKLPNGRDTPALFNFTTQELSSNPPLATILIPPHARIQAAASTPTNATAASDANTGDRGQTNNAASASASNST
Protocol: as §1

PKBγ = PKBγ (Homo sapiens, UniProt Q9Y243); test: Kinase profiling panel: PKBγ; type: biochemical; settings: 5 μM compound; for remaining activity at 5 µM: average of triplicate, read-out: % activity vs. DMSO, PKBγ
Chain of PKBγ (Q9Y243 whole entry, species assumed): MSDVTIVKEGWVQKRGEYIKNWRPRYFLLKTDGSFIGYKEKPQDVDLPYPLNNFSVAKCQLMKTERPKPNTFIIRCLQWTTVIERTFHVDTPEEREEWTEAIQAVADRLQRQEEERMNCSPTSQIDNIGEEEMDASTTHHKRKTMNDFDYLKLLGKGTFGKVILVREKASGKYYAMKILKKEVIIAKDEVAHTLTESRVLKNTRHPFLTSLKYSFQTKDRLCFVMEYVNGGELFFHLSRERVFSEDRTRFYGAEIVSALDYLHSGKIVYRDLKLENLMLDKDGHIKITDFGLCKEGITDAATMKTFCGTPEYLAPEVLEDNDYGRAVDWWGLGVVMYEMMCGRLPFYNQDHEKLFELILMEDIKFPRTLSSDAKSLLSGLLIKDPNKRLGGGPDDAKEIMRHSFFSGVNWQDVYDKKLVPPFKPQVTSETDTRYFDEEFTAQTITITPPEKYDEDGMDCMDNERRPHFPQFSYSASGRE
Protocol: as §1

[1] = test system: PDK1 phosphorylation of Akt (Thr308); test: Western blot, PDK1 phosphorylation of Akt (Thr308) in thyroid cancer cells; type: cell-based, Human; settings: BCPAP; for PDK1 phosphorylation of Akt (Thr308) (Western blot): 7.5 μM, 6 h, FTC133 and TPC1 cells (FIG. 3); for Dose-dependency of PDK-mediated Akt phosphorylation: dose-response, 6 hours, FTC133 and TPC1 cells (FIG. 4A)
Protocol: Protein isolation and Western blot were performed as previously described. Ringel et al., Cancer research 61:6105-6111 (2001). 25 μg of total cell lysates were loaded into 4-12% SDS-PAGE, electrophoresed, and transferred to nitrocellulose membranes for immunoblotting. Primary antibodies against Akt (#9272), phospho-Akt (Thr308) (#2965), p44/42 MAPK (Erk1/2) (#9107), phospho-p44/42 MAPK (Erk1/2) (Thr202/Tyr204) (#4377) and GAPDH (#2118) were obtained from Cell Signaling Technology (Danvers, Mass., USA). Antibody against Vimentin (V6630) and phospho-Ser55 Vimentin were from Sigma-Aldrich, Inc. (St. Louis, Mo.) and MBL Co. (Nagoya, Japan), respectively. Antibodies against total and phosphorylated S6 were from Cell Signaling Technology®.
The ability of the compounds with in vitro anti-PAK1 activity was assessed for activity […] in thyroid cancer cells. In addition, because the compounds are based on the structure of a PDK1 inhibitor, PDK1 inhibitory activity was also assessed. Inhibitory activity in cells was estimated using Western blot with primary antibodies directed against kinase-specific phosphorylation sites; serine 56 of vimentin for PAK and threonine 308 of Akt for PDK1. BCPAP, TPC1, and FTC133 thyroid cancer cells were utilized. BCPAP and TPC1 are derived from PTC and have BRAF V600E and RET/PTC1 rearrangements, respectively. FTC133 is derived from a follicular thyroid cancer with an inactivating mutation of PTEN. Similar to the kinase screening assay, cells were treated with the six compounds or OSU-03012 at 7.5 μM concentration or with DMSO vehicle alone. The results were not entirely consistent across the three cell lines presumably related to mutation status or other factors. OSU-03012 inhibited both PDK1 and PAK-mediated phosphorylation of targets as predicted.
The dose-dependency of compounds 4 and 15 was next assessed (FIG. 4). […] Due to the important role that ERK activation plays in thyroid cancer, and its signaling activation by thyroid oncogenes, the effects of the compounds on ERK phosphorylation was also assessed.

Row | SMILES | IC50 (BCPAP cells) [nM] | % activity vs. DMSO, EGFR (EGFR) [%] | % activity vs. DMSO, GSK3β (GSK3β) [%] | inhibition at 5 µM (PKBγ) [%] | remaining activity at 5 µM (PKBγ) [%] | PDK1 phosphorylation of Akt (Thr308) (Western blot) [1] | Dose-dependency of PDK-mediated Akt phosphorylation [1]
1 | NCCC(=O)Nc1ccc(-n2nc(C(F)(F)F)cc2-c2ccc3ccc4ccccc4c3c2)cc1 [Compound 4, 3-amino-N-(4-(5-(phenanthren-3-yl)-3-(trifluoromethyl)-1H-pyrazol-1-yl)phenyl)-propanamide] | 2070 ± 60 | 99 | 170 | > 50 | 33 | without altering PDK1 activity; also recorded: did not block PDK1-mediated Akt phosphorylation | not reduced
2 | CC(C)NC(=O)c1cc(-c2ccc3ccc4ccccc4c3c2)n(-c2ccc(NC(=O)CN)cc2)n1 [Compound 15, 1-(4-(2-Aminoacetamido)phenyl)-N-isopropyl-5-(phenanthren-3-yl)-1H-pyrazole-3-carboxamide] | 1490 ± 680 | 100 | 137 | – | 56 | without altering PDK1 activity; also recorded: did not block PDK1-mediated Akt phosphorylation | not reduced
